The target in experiment [1] is T1, P. aeruginosa PBP3 (Pseudomonas aeruginosa, UniProt G3XD46).
T1 construct: made in house
Kind of experiment: Bocillin-FL fluorescence polarization competition binding assay, P. aeruginosa PBP3. Conditions: fluorescence polarization competition binding assay using Bocillin-FL. A digest of the protocol:
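Binding of boronic acid inhibitors to purified Pseudomonas aeruginosa (PA01) PBP3 was measured by fluorescence polarization competition with Bocillin-FL, a fluorescent penicillin V. Reactions of 80 μl contained 0.75 μM PBP3 and 0.1 μM Bocillin-FL in 50 mM Hepes (pH 8.0), 300 mM NaCl and 5% (v/v) glycerol, in black 384-well plates. FP (Excitation 490 nm, Emission 520 nm) was read for up to 60 minutes. EC50 is the concentration that halves PBP-bound Bocillin-FL.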
For orientation: Polarisation of emitted light reports the rotation of a fluorescent probe.

The target in experiment [2] is T2, E. coli K12 PBP3 (Escherichia coli, UniProt P0AD68).
T2 construct: made in house
Nature of the experiment: biochemical. It is filed as binding. A digest of the protocol:
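Fluorescence polarization (ex 490/em 520 nm) competition of inhibitors against Bocillin-FL at 0.1 μM, read up to 60 min. Final PBP levels: E. coli PBP3 1.5 μM; A. baumannii PBP2 2.5 μM, PBP3 0.2 μM in Tris pH 8.0/NaCl/glycerol/Tween 20; N. gonorrhoeae PBP2 […] in Hepes pH 8.0/NaCl/glycerol. EC50 = concentration halving PBP-bound Bocillin-FL.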

The subject of experiment [3] is N. gonorrhoeae WHO L. Nature of the experiment: Liquid broth MIC in Fastidious broth. It is filed as cell-based. Conditions: Neisseria gonorrhoeae, read-out: Minimum Inhibitory Concentration, N. gonorrhoeae WHO L. As for the experimental part: (§1) Example V: In Vitro Antibacterial Assays for N. gonorrhoeae Strains
(§2) Additional antibacterial testing of the series was performed in 8 reference strains of N. gonorrhoeae (ATCC 49226, FA1090, WHO G, WHO L, WHO K, H041, WHO Z, and WHO Q). ATCC 49226, FA1090, WHO G, and WHO L produce wild type or wild-type like PBP2. WHO K, H041, WHO Z, and WHO Q produce mosaic PBP2. Liquid broth-based assays were used for antibacterial testing of PBP inhibitors in Neisseria gonorrhoeae. Briefly, cryo-preserved bacterial cultures of clinical strains were streaked for isolation on Chocolate Agar (72 g/L (2×) GC Agar Base (BD #228950) and 2% (2×) Hemoglobin was autoclaved at 121° C. for 20 minutes to sterilize. Once cooled to ˜50° C. the 2× GC Agar Base and 2× Hemoglobin solutions are combined and 1% IsoVitaleX Enrichment (BD #211876) was added to the solution). Strains were incubated at 36° C. and 5% CO2 to allow growth of colonies, 24 hours before inoculum preparation. 2-fold serial dilutions of test compounds were conducted in a 96 well plate with a final volume of 75 μL per well at 2-fold the final desired concentration in Fastidious broth (Remel #R07664). For preparation of assay inoculum, a direct suspension was prepared by aseptically swabbing all colonies from agar plates into culture tubes containing 2 mL of fresh sterile saline. After the dilution plates were set up, direct suspensions were then diluted in a cuvette containing sterile saline and the optical density was measured at 600 nm. Inocula were diluted such that 75 μL of this culture in Fastidious broth results in a starting bacterial concentration of 5×10^5 CFU/mL when added to the dilution plates. The plates were incubated for ˜24 hours at 36° C. and 5% CO2. The MIC was read visually as the lowest concentration well with <10% bacterial growth compared to wells of full growth.

Experiment [4] relates to N. gonorrhoeae FA1090. Kind of experiment: Liquid broth MIC in Fastidious broth. Format: cell-based. Conditions: Neisseria gonorrhoeae; N. gonorrhoeae strain FA1090; Fastidious broth; read-out: Minimum Inhibitory Concentration, N. gonorrhoeae FA1090. As for the experimental part: as §1, §2
In experiment [5] the test system is N. gonorrhoeae WHO G. Kind of experiment: Liquid broth MIC in Fastidious broth. Conditions: Neisseria gonorrhoeae, read-out: Minimum Inhibitory Concentration, N. gonorrhoeae WHO G. Format: cell-based. The procedure:
as §1, §2

The test system of experiment [6] is N. gonorrhoeae ATCC 49226. Nature of the experiment: Liquid broth MIC in Fastidious broth. Format: cell-based. Conditions: Neisseria gonorrhoeae, ATCC49226; N. gonorrhoeae strain ATCC 49226; Fastidious broth; read-out: Minimum Inhibitory Concentration, N. gonorrhoeae ATCC 49226. As for the experimental part: as §1, §2
Experiment [7] deals with N. gonorrhoeae WHO K. Kind of experiment: Liquid broth MIC in Fastidious broth. Format: cell-based. Conditions: Neisseria gonorrhoeae, read-out: Minimum Inhibitory Concentration, N. gonorrhoeae WHO K. The procedure: as §1, §2
The subject of experiment [8] is N. gonorrhoeae H041. Nature of the experiment: Liquid broth MIC in Fastidious broth. It is filed as cell-based. As to conditions: Neisseria gonorrhoeae, H041, read-out: Minimum Inhibitory Concentration, N. gonorrhoeae H041. As for the experimental part: as §1, §2
The mark [9] stands for this setting: N. gonorrhoeae strain WHO L, Fastidious broth.
The mark [10] stands for this setting: N. gonorrhoeae strain WHO G, Fastidious broth.

The source of these data is US20230114728A1 (Venatorx Pharmaceuticals, Inc., priority 2019, published 2023).

In brackets after ≈: the same amount, converted by molar mass. Read-outs that look alike come from different tables or passages of the source.

T2 sequence (P0AD68 1-577): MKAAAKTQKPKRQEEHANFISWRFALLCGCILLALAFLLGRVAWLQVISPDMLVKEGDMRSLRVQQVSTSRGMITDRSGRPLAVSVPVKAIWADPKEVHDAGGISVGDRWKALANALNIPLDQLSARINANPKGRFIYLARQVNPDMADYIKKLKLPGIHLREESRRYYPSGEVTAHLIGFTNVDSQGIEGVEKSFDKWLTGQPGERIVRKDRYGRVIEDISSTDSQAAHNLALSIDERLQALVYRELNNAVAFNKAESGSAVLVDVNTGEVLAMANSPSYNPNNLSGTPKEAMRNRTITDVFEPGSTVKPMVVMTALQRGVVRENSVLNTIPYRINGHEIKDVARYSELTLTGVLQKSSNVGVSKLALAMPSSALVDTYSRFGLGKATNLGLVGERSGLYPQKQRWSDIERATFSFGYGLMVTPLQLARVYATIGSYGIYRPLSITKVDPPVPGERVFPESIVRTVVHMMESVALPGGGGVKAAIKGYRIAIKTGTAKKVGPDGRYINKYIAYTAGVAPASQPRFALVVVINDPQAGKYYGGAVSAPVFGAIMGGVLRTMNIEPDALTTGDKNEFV
T1 sequence (G3XD46 whole entry): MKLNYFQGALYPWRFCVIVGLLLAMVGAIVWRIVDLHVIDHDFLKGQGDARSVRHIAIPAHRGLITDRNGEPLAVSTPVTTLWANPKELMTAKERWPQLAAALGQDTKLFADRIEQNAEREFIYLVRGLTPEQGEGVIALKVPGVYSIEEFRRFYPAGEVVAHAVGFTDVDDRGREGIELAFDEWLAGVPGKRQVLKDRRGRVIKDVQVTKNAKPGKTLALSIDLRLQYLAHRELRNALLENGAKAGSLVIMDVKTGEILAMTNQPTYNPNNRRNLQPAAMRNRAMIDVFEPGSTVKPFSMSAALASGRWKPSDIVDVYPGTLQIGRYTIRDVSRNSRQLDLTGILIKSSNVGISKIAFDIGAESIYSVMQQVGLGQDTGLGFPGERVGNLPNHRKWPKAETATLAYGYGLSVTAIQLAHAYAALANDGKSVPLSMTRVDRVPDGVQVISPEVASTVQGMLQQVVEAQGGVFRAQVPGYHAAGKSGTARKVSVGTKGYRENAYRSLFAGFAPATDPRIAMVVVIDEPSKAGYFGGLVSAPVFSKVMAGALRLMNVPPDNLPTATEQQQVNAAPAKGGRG

Regarding `CCN1CCN(C(=O)NC(C(=O)N[C@H]2Cc3cccc(C(=O)O)c3OB2O)c2cc(O)cc(O)c2)C(=O)C1=O` (mixture of isomers) [Example 79, (3R)-3-(2-(3,5-dihydroxyphenyl)-2-(4-ethyl-2,3-dioxopiperazine-1-carboxamido)acetamido)-2-hydroxy-3,4-dihydro-2H-benzo[e][1,2]oxaborinine-8-carboxylic acid], in experiment [1], the “P. aeruginosa PBP3 Potency” value was “D (D represents a potency <10 μM)”. The compound also came in with a 50% effective concentration (EC50) in experiment [2] of 30 to 500 µM. Besides, the MIC was 16 to 32 µg/mL in experiment [3] (setting [9]); less than 0.125 µg/mL in experiment [4]; 1 to 2 µg/mL in experiment [5] (setting [10]); 1 to 2 µg/mL in experiment [6]; 16 to 32 µg/mL in experiment [7]; 16 to 32 µg/mL in experiment [8].
Regarding `NCCN1CCN(C(=O)N[C@@H](C(=O)N[C@H]2Cc3ccc(F)c(C(=O)O)c3OB2O)c2c(F)cc(O)c(O)c2Cl)C(=O)C1=O` (single isomer, unassigned) [Example 26], the “P. aeruginosa PBP3 Potency” value in experiment [1] was “D (D represents a potency <10 μM)”. The EC50 in experiment [2] is less than 30 µM. Also, the MIC in experiment [3] (setting [9]) is greater than 64 µg/mL; in experiment [4], 16 to 32 µg/mL (≈ 25.6 to 51.1 µM); in experiment [5] (setting [10]), greater than 64 µg/mL; in experiment [6], greater than 64 µg/mL; in experiment [7], greater than 64 µg/mL; in experiment [8], greater than 64 µg/mL.
In the case of `NCCCN1CCN(C(=O)N[C@@H](C(=O)N[C@H]2Cc3ccc(F)c(C(=O)O)c3OB2O)c2c(F)cc(O)c(O)c2Cl)C(=O)C1=O` (single isomer, unassigned) [Example 27], the “P. aeruginosa PBP3 Potency” value in experiment [1] is listed as “D (D represents a potency <10 μM)”. For the same compound, the concentration for a half-maximal effect (EC50) in experiment [2] was less than 30 µM. Further, the MIC in experiment [3] (setting [9]) is greater than 64 µg/mL; in experiment [4], 16 to 32 µg/mL (≈ 25 to 50 µM); in experiment [5] (setting [10]), 16 to 32 µg/mL (≈ 25 to 50 µM); in experiment [6], greater than 64 µg/mL; in experiment [7], greater than 64 µg/mL; in experiment [8] it was greater than 64 µg/mL.
In the case of `NCCCN1CCN(C(=O)N[C@H](C(=O)N[C@H]2Cc3ccc(F)c(C(=O)O)c3OB2O)c2ccc(O)c(O)c2Cl)C(=O)C1=O` (single isomer, unassigned) [Example 28], the “P. aeruginosa PBP3 Potency” value in experiment [1] is “B (B represents a potency between 30 μM and 500 μM inclusive)”. The compound further showed an EC50 in experiment [2] of 30 to 500 µM. The MIC in experiment [3] (setting [9]), in experiment [4], in experiment [5] (setting [10]), in experiment [6], in experiment [7] and in experiment [8] was greater than 64 µg/mL in each case.
In the case of `O=C(O)c1c(F)ccc2c1OB(O)[C@@H](NC(=O)[C@H](NC(=O)N1CCNC1=O)c1c(F)cc(O)c(O)c1Cl)C2` (single isomer, unassigned) [Example 34], the “P. aeruginosa PBP3 Potency” value in experiment [1] was “D (D represents a potency <10 μM)”. This compound also showed an EC50 in experiment [2] of less than 30 µM. The MIC is greater than 64 µg/mL in experiment [3] (setting [9]); 4 to 8 µg/mL (≈ 7.21 to 14.4 µM) in experiment [4]; 16 to 32 µg/mL (≈ 28.8 to 57.7 µM) in experiment [5] (setting [10]); 16 to 32 µg/mL (≈ 28.8 to 57.7 µM) in experiment [6]; greater than 64 µg/mL in experiment [7]; greater than 64 µg/mL in experiment [8].
Turning to `CS(=O)(=O)N1CCN(C(=O)N[C@@H](C(=O)N[C@H]2Cc3ccc(F)c(C(=O)O)c3OB2O)c2c(F)cc(O)c(O)c2Cl)C1=O` (single isomer, unassigned) [Example 35], in experiment [1], the “P. aeruginosa PBP3 Potency” value is “D (D represents a potency <10 μM)”. In addition, the EC50 in experiment [2] is less than 30 µM. In addition, the MIC was greater than 64 µg/mL in experiment [3] (setting [9]); 4 to 8 µg/mL (≈ 6.32 to 12.6 µM) in experiment [4]; 16 to 32 µg/mL (≈ 25.3 to 50.6 µM) in experiment [5] (setting [10]); 16 to 32 µg/mL (≈ 25.3 to 50.6 µM) in experiment [6]; greater than 64 µg/mL in experiment [7]; greater than 64 µg/mL in experiment [8].
Take `O=C(O)c1ccc(C(NC(=O)N2CCN(CCNC(=O)c3ccc(O)c(O)c3Cl)C(=O)C2=O)C(=O)N[C@H]2Cc3ccc(F)c(C(=O)O)c3OB2O)cc1F` (stereo partly drawn) [Example 11, (3R)-3-(2-(4-carboxy-3-fluorophenyl)-2-(4-(2-(2-chloro-3,4-dihydroxybenzamido)ethyl)-2,3-dioxopiperazine-1-carboxamido)acetamido)-7-fluoro-2-hydroxy-3,4-dihydro-2H-benzo[e][1,2]oxaborinine-8-carboxylic acid]: the EC50 in experiment [2] is less than 30 µM. For the same compound, the MIC in experiment [3] (setting [9]) was greater than 64 µg/mL; in experiment [4] it was 1 to 2 µg/mL (≈ 1.29 to 2.58 µM); in experiment [5] (setting [10]), 4 to 8 µg/mL (≈ 5.17 to 10.3 µM); in experiment [6], 16 to 32 µg/mL (≈ 20.7 to 41.4 µM); in experiment [7], greater than 64 µg/mL; in experiment [8], greater than 64 µg/mL.
Regarding `O=C(O)c1c(F)ccc2c1OB(O)[C@@H](NC(=O)C(NC(=O)N1CCN(CCBr)C(=O)C1=O)c1c(F)cc(O)c(O)c1F)C2` (stereo partly drawn) [Example 38, (3R)-3-(2-(4-(2-bromoethyl)-2,3-dioxopiperazine-1-carboxamido)-2-(2,6-difluoro-3,4-dihydroxyphenyl)acetamido)-7-fluoro-2-hydroxy-3,4-dihydro-2H-benzo[e][1,2]oxaborinine-8-carboxylic acid], in experiment [2], the EC50 was less than 30 µM. The MIC in experiment [3] is greater than 64 µg/mL; in experiment [4], 4 to 8 µg/mL (≈ 5.94 to 11.9 µM); in experiment [5] it was 16 to 32 µg/mL (≈ 23.8 to 47.5 µM); in experiment [6] it was 16 to 32 µg/mL (≈ 23.8 to 47.5 µM); in experiment [7] it was greater than 64 µg/mL; in experiment [8] it was greater than 64 µg/mL.
`CCN1CCN(C(=O)NC(C(=O)N[C@H]2Cc3ccc(S)c(C(=O)O)c3OB2O)c2csc(N)n2)C(=O)C1=O` (stereo partly drawn) [Example 54, (3R)-3-(2-(2-aminothiazol-4-yl)-2-(4-ethyl-2,3-dioxopiperazine-1-carboxamido)acetamido)-2-hydroxy-7-mercapto-3,4-dihydro-2H-benzo[e][1,2]oxaborinine-8-carboxylic acid] returned an EC50 in experiment [2] of 30 to 500 µM.
On the same count and under the same terms, as for `CCN1CCN(C(=O)NC(C(=O)N[C@H]2Cc3ccc(SCc4ccc(O)cc4)c(C(=O)O)c3OB2O)c2csc(N)n2)C(=O)C1=O` (stereo partly drawn) [Example 55, (3R)-3-(2-(2-aminothiazol-4-yl)-2-(4-ethyl-2,3-dioxopiperazine-1-carboxamido)acetamido)-2-hydroxy-7-((4-hydroxybenzyl)thio)-3,4-dihydro-2H-benzo[e][1,2]oxaborinine-8-carboxylic acid], the figure is 30 to 500 µM.
For the compound `CCN1CCN(C(=O)NC(C(=O)N[C@H]2Cc3ccc(O[C@@H]4CN[C@H](C(=O)N(C)C)C4)c(C(=O)O)c3OB2O)c2ccccc2)C(=O)C1=O` (stereo partly drawn) [Example 59, (3R)-7-(((3S,5S)-5-(dimethylcarbamoyl)pyrrolidin-3-yl)oxy)-3-(2-(4-ethyl-2,3-dioxopiperazine-1-carboxamido)-2-phenylacetamido)-2-hydroxy-3,4-dihydro-2H-benzo[e][1,2]oxaborinine-8-carboxylic acid], the EC50 in experiment [2] was in the range of 30 to 500 µM. For the same compound, the MIC in experiment [3] (setting [9]) is greater than 64 µg/mL; in experiment [4], 4 to 8 µg/mL (≈ 6.02 to 12 µM); in experiment [5] (setting [10]), greater than 64 µg/mL; in experiment [6], greater than 64 µg/mL; in experiment [7] it was greater than 64 µg/mL; in experiment [8], greater than 64 µg/mL.
As for `NCCN1CCN(C(=O)NC(C(=O)N[C@H]2Cc3cccc(C(=O)O)c3OB2O)c2c(F)cc(O)cc2Cl)C(=O)C1=O` (stereo partly drawn) [Example 94, (3R)-3-(2-(4-(2-aminoethyl)-2,3-dioxopiperazine-1-carboxamido)-2-(2-chloro-6-fluoro-4-hydroxyphenyl)acetamido)-2-hydroxy-3,4-dihydro-2H-benzo[e][1,2]oxaborinine-8-carboxylic acid], the EC50 in experiment [2] was less than 30 µM. The MIC in experiment [3] (setting [9]) was greater than 64 µg/mL; in experiment [4], 4 to 8 µg/mL (≈ 6.76 to 13.5 µM); in experiment [5] (setting [10]), 16 to 32 µg/mL (≈ 27 to 54.1 µM); in experiment [6], greater than 64 µg/mL; in experiment [7], greater than 64 µg/mL; in experiment [8], greater than 64 µg/mL.

Usually EC50 stands for the concentration needed to bring the measured effect to its halfway point. Higher therefore signals weaker potency.
